Measured values published in publication PMC8395040 (International Journal of Molecular Sciences, 2021).

Columns and labels:
[1] = test system: HT29; assay: Colony formation assay, HT29; format: cell-based, human; conditions: 5 µM, 14 d
Experimental: HT29, HCT116, H1975 and HEK293 cells were seeded in a 6-well plate (1 × 10^4 cells per well) and incubated overnight in DMEM F12 supplemented with 10% FBS. […] After 72 h, the medium was replaced by fresh medium without stimuli, and cells were incubated for an additional 14 d to permit colony formation. The cells were fixed during 30 min with PFA 4% (v/v), washed and stained for 30 min at RT with a 5% solution of violet crystal for final colony counting. Three independent replicates were performed.

[2] = test system: B16F10 cells; assay: MTS viability assay, B16F10; format: cell-based, murine; conditions: Mus musculus, B16-F10, 24 h
Experimental: In the case of experiments using nanoemulsions, cell proliferation was evaluated after treatments. To do this the complete medium containing treatments was removed and replaced with fresh culture medium supplemented with 10% tetrazolium compound of the MTS® assay (CellTiter 96® Aqueous Non-Radioactive Cell Proliferation Assay), according to the manufacturer’s instructions (Promega, Madison, WI, USA). The soluble formazan produced by live cells was detected as absorbance at 490 nm on a Multiscan Reader (Synergy-H4, Biotek). Background values contributed by excess of cell debris and bubbles were measured at 650 nm and were subtracted.
Figure 7 Effect of 4s-NEM on the viability of cancer (B16F10) and non-cancer (HEK293) cells in vitro. Cells were treated with 4s-NEM at different concentrations for 24 h and their viability was evaluated using the MTS assay; SDS, the vehicle for NEM, and 4s free in the culture medium were used as controls. The IC50 was determined in each case. (A) Effect of 4s-NEM on B16F10 cells. Six independent experiments were performed in triplicate. Results are shown as the mean ± SEM. (B) Effect of 4s-NEM on HEK293 cells. Results are shown as the mean ± SEM of three separate experiments. (***) p < 0.001, (*) p < 0.05 vs. control, ns = non-significant. Data analysis was performed via a 2-way ANOVA Tukey’s multiple comparisons test.

[3] = test system: HEK293; assay: Cell cycle analysis (PI, flow cytometry), HEK293; format: cell-based, human; conditions: 19 µM, 24 h
Experimental: HT29 and HEK293 cells were plated in 6-well plates at a density of 2.0 × 10^5 cells/1.5 mL/well and grown overnight at 37 °C in a 5% CO2 humidified atmosphere. […] Aliquots of cells were collected, pelleted, washed, and fixed with ethanol (70% v/v) for at least 30 min at 4 °C. Cells were resuspended twice in PBS and, after centrifugation and elimination of the supernatant, they were finally resuspended in a PBS solution containing propidium iodide (PI; […], Invitrogen), RNase A ([…], Invitrogen). After a final incubation for 1 h in the dark at 37 °C, the PI signal was measured using a FACS Canto II Flow-cytometer (BD; Mountain View, CA) with a 488 nm excitation laser, captured and FACS DIVA was used as the acquisition software. The percentage of cells in each phase was analysed using the FCS Express v6 software. Two independent biological replicates were performed.

[4] = test system: tumour cell lines; assay: MTT cytotoxicity assay, summary over the tumour cell line panel; format: cell-based, human
Experimental: Cytotoxicity assays were performed by using the MTT reduction method as described previously. Briefly, cancer cell lines were plated in flat-bottom 96-well plates at a cell concentration of 5 × 10^3 cells/well for the fastest growing lines, such as HEK293 and HT29 cells and 1 × 10^4 cells/well for more slowly growing lines, such as HCT116, H1975, BxPC-3, AsPC-1, B16-F10 and DAOY. Then, cells were incubated with the synthesised compounds at different concentrations (from 0.05 to 50 µM) in 200 µL with 10% FBS in RPMI 1640 or DMEM F12 culture medium at 37 °C for 72 h. Later, 10 µL of MTT were added at a final concentration of 0.5 mg/mL, incubated at 37 °C for 4 h, and then solubilised with 10% sodium dodecyl sulphate (SDS) in 0.1 mM HCl and incubated overnight at 37 °C. Formazan formation was measured at 570 nm in a multiwell plate reader (Cytation 5, Biotek Instruments, Winooski, VT, USA). Three independent biological replicates were performed.

[5] = molecular target: T1, human SMO D473H mutant (Homo sapiens, UniProt Q99835, D473H); assay: BODIPY-cyclopamine displacement assay, SMO D473H; format: binding
T1 construct: Myc; expressed in transfected cells; host or cells: HEK293T
T1 sequence (Q99835 28-787 D473H): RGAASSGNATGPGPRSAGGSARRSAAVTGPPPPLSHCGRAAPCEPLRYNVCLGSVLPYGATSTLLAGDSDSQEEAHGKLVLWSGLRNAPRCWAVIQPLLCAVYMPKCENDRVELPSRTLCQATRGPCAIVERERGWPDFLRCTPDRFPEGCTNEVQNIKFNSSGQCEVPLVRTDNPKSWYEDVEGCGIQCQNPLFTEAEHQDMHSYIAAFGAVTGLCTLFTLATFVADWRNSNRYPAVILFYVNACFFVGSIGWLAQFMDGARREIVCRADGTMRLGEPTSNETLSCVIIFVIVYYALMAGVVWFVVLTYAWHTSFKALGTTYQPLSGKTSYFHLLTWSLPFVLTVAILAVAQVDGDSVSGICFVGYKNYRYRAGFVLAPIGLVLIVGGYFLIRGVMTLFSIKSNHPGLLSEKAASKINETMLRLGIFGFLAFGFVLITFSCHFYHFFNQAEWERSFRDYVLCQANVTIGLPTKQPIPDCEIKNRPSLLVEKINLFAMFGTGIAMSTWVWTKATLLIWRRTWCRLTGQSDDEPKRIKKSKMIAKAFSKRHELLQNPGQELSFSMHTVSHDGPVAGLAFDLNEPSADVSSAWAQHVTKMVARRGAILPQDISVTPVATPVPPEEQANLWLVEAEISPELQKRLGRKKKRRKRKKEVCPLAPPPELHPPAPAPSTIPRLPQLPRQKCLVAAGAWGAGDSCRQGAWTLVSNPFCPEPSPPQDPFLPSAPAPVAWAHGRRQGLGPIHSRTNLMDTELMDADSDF
Experimental: (§1) HEK293T cells were transfected with genes encoding human WT SMO tagged with Myc-DDK or human SMO D473H mutant tagged with Myc. Cells were washed in PBS supplemented with 0.5% FBS, fixed in 4% paraformaldehyde in PBS for 10 min, and incubated for 6 h at 37 °C in the same medium supplemented with BODIPY-cyclopamine (5 nM), with and without 4s at different concentrations ([…]). The cells were permeabilised with 0.2% Triton X-100 (Sigma, St. Louis, MO, USA). Dako Fluorescent Mounting solution (Dako, Carpinteria, CA, USA) was used as mounting medium and the Hoechst reagent for staining of cell nuclei. BODIPY (green) and Hoechst (blue) signals were analysed in three representative fields per coverslip (×20 magnification). Data were expressed as the percentage of BC incorporation observed with BC alone.

[6] = molecular target: T2, human WT SMO (Homo sapiens, UniProt Q99835); assay: BODIPY-cyclopamine displacement assay, WT SMO; conditions: HEK293T transfected with WT SMO, BC 5 nM; read-out: IC50 for binding to WT SMO (BC displacement)
T2 construct: Myc-DDK; expressed in transfected cells; host or cells: HEK293T
T2 sequence (Q99835 28-787): as the sequence (Q99835 28-787 D473H) above, with H446D counted along it
Experimental: as §1

| IC50 [2] [µM] | binding to the SMO-D473H mutant receptor ([5]; HEK293T expressing SMO-D473H, up to 5 µM) | decrease of binding affinity with SMO-D473H mutant compared to WT SMO ([5]; suggested, no IC50 determinable) | IC50 [6] [µM] | SMILES | colony formation HT-29 [1] | changes in cell cycle, HEK293 [3] | selectivity for cancer cells compared to HEK293 control cells [4] [times] | cytotoxicity in tumour cell lines ([4]; 50 µM, 72 h, MTT, tumour cell lines tested) | IC50 ([4]; Homo sapiens, depending on the tumour cell line, 72 h, read-out: IC50 range over tumour cell lines) [µM] | fold increase in cytotoxicity compared to vismodegib ([4]; from IC50 values) [fold] | concentration above which toxic to SMO-D473H cells ([5]; HEK293T expressing SMO-D473H) |
| --- | --- | --- | --- | --- | --- | --- | --- | --- | --- | --- | --- |
|  |  |  |  | CS(=O)(=O)c1ccc(C(=O)Nc2ccc(Cl)c(-c3ccccn3)c2)c(Cl)c1 [Vismodegib, reference compound] | less effective than 4s |  |  |  |  |  |  |
| 27.5 | dose-dependent inhibition of binding | about 25% | 0.95 | CCCCCCn1cnc2c(-c3ccc(OC(F)(F)F)cc3)nc(N3CCN(c4ccncc4)CC3)nc21 [Compound 4s, 9-Hexyl-2-(4-(pyridin-4-yl)piperazin-1-yl)-6-(4-(trifluoromethoxy)phenyl)-9H-purine] |  | did not observe any changes | 40 | more than 80% | 1.3 to 15 | ~40 | above 5 µM |
